ChEMBL document CHEMBL3885861, “Open TG-GATES”

Organism: Rattus norvegicus
Experiment: Open TG-GATES - Regimen: Daily Repeat
Type: toxicity, organism-based, Sprague-Dawley
Set-up: regimen Daily Repeat, gender Male, age 6 weeks
Details: in vivo, po, 20 mg/kg, route gavage, dose level Middle; for APTT / Bas / Eos / Fbg / Hb / Ht / Lym / MCH / MCHC / MCV / Mono / Neu / PT / Plat / RBC / Ret / WBC: tissue Blood; for KIDNEY_L / KIDNEY_R / KIDNEY_TOTAL: tissue Kidney; for LIVER: tissue Liver; for A/G / ALP / ALT / AST / BUN / CRE / Ca / Cl / DBIL / GLC / IP / K / LDH / Na / PL / RALB / TBIL / TC / TG / TP / gamma-GTP: tissue Plasma

With `CC(C)NNC(=O)c1ccncc1` [IPRONIAZID] the TERMINAL_BW (72 h, time 3 day) was 194.3 g, the APTT (72 h, time 3 day) was 22.2 s and the Bas (72 h, time 3 day) was 0%. For the same molecule, the Eos (72 h, time 3 day) was 1%, the Fbg (72 h, time 3 day) was 299.2 mg/dL and the Hb (72 h, time 3 day) was 14.1 g/dL. It also gave a Ht (72 h, time 3 day) of 40.8%, a Lym (72 h, time 3 day) of 78.8% and an MCH (72 h, time 3 day) of 20.7 pg. It also gave an MCHC (72 h, time 3 day) of 34.6%, an MCV (72 h, time 3 day) of 59.9 fL and a Mono (72 h, time 3 day) of 2.4%. For the same molecule, the Neu (72 h, time 3 day) was 17.6%, the PT (72 h, time 3 day) was 16.5 s and the Plat (72 h, time 3 day) was 134 x10_4/uL. For the same molecule, the RBC (72 h, time 3 day) was 682.6 x10_4/ul, the Ret (72 h, time 3 day) was 5.9% and the WBC (72 h, time 3 day) was 72.4 x10_2/uL. The KIDNEY_L (72 h, time 3 day) was 0.8 g, the KIDNEY_R (72 h, time 3 day) was 0.9 g and the KIDNEY_TOTAL (72 h, time 3 day) was 1.7 g. It also gave an LIVER (72 h, time 3 day) of 8.7 g, an A/G (72 h, time 3 day) of 1.2 and an ALP (72 h, time 3 day) of 1696.2 IU/L. The ALT (72 h, time 3 day) was 42 IU/L, the AST (72 h, time 3 day) was 74 IU/L and the BUN (72 h, time 3 day) was 19.2 mg/dL. For the same molecule, the CRE (72 h, time 3 day) was 0.2 mg/dL, the Ca (72 h, time 3 day) was 10.5 mg/dL and the Cl (72 h, time 3 day) was 108.2 meq/L. For the same molecule, the DBIL (72 h, time 3 day) was 0.002 mg/dL, the GLC (72 h, time 3 day) was 175 mg/dL and the IP (72 h, time 3 day) was 7.1 mg/dL. The K (72 h, time 3 day) was 4.4 meq/L, the LDH (72 h, time 3 day) was 262 IU/L and the Na (72 h, time 3 day) was 143.2 meq/L. For the same molecule, the PL (72 h, time 3 day) was 150.8 mg/dL, the RALB (72 h, time 3 day) was 3.3 g/dL and the TBIL (72 h, time 3 day) was 0.01 mg/dL. The TC (72 h, time 3 day) was 80.6 mg/dL, the TG (72 h, time 3 day) was 105.2 mg/dL and the TP (72 h, time 3 day) was 5.9 g/dL. It also gave a gamma-GTP (72 h, time 3 day) of 1 IU/L, a TERMINAL_BW ([…], time 7 day) of 222.7 g and a TERMINAL_BW ([…], time 14 day) of 259.4 g. For the same molecule, the TERMINAL_BW ([…], time 28 day) was 331.2 g, the APTT ([…], time 7 day) was 22.7 s and the Bas ([…], time 7 day) was 0%. For the same molecule, the Eos ([…], time 7 day) was 1%, the Fbg ([…], time 7 day) was 311.4 mg/dL and the Hb ([…], time 7 day) was 13.3 g/dL. It also gave a Ht ([…], time 7 day) of 37.6%, a Lym ([…], time 7 day) of 82.2% and an MCH ([…], time 7 day) of 20.5 pg. For the same molecule, the MCHC ([…], time 7 day) was 35.4%, the MCV ([…], time 7 day) was 57.8 fL and the Mono ([…], time 7 day) was 1.8%. The Neu ([…], time 7 day) was 13.8%, the PT ([…], time 7 day) was 15.4 s and the Plat ([…], time 7 day) was 122.6 x10_4/uL. It also gave an RBC ([…], time 7 day) of 651.6 x10_4/ul, a Ret ([…], time 7 day) of 4.2% and a WBC ([…], time 7 day) of 73.7 x10_2/uL. The APTT ([…], time 14 day) was 20.5 s, the Bas ([…], time 14 day) was 0% and the Eos ([…], time 14 day) was 0.6%. For the same molecule, the Fbg ([…], time 14 day) was 320.6 mg/dL, the Hb ([…], time 14 day) was 12.5 g/dL and the Ht ([…], time 14 day) was 36.8%. The Lym ([…], time 14 day) was 76%, the MCH ([…], time 14 day) was 19.9 pg and the MCHC ([…], time 14 day) was 34%. It also gave an MCV ([…], time 14 day) of 58.7 fL, a Mono ([…], time 14 day) of 2.2% and a Neu ([…], time 14 day) of 20.4%. It also gave a PT ([…], time 14 day) of 16.1 s, a Plat ([…], time 14 day) of 122.7 x10_4/uL and an RBC ([…], time 14 day) of 628 x10_4/ul. For the same molecule, the Ret ([…], time 14 day) was 8.9%, the WBC ([…], time 14 day) was 105.3 x10_2/uL and the APTT ([…], time 28 day) was 24 s. The Bas ([…], time 28 day) was 0%, the Eos ([…], time 28 day) was 1% and the Fbg ([…], time 28 day) was 313.2 mg/dL. The Hb ([…], time 28 day) was 13.5 g/dL, the Ht ([…], time 28 day) was 39% and the Lym ([…], time 28 day) was 80.8%. For the same molecule, the MCH ([…], time 28 day) was 20.6 pg, the MCHC ([…], time 28 day) was 34.5% and the MCV ([…], time 28 day) was 59.6 fL. For the same molecule, the Mono ([…], time 28 day) was 1.2%, the Neu ([…], time 28 day) was 16.6% and the PT ([…], time 28 day) was 16.3 s. The Plat ([…], time 28 day) was 108.1 x10_4/uL, the RBC ([…], time 28 day) was 654.8 x10_4/ul and the Ret ([…], time 28 day) was 6.7%. For the same molecule, the WBC ([…], time 28 day) was 133.5 x10_2/uL, the KIDNEY_L ([…], time 7 day) was 0.9 g and the KIDNEY_R ([…], time 7 day) was 0.9 g. It also gave a KIDNEY_TOTAL ([…], time 7 day) of 1.8 g, a KIDNEY_L ([…], time 14 day) of 1 g and a KIDNEY_R ([…], time 14 day) of 1 g. It also gave a KIDNEY_TOTAL ([…], time 14 day) of 2.1 g, a KIDNEY_L ([…], time 28 day) of 1.2 g and a KIDNEY_R ([…], time 28 day) of 1.2 g. It also gave a KIDNEY_TOTAL ([…], time 28 day) of 2.4 g, an LIVER ([…], time 7 day) of 9.4 g and an LIVER ([…], time 14 day) of 10.8 g. The LIVER ([…], time 28 day) was 12.6 g, the A/G ([…], time 7 day) was 1.2 and the ALP ([…], time 7 day) was 1298.6 IU/L. The ALT ([…], time 7 day) was 36.2 IU/L, the AST ([…], time 7 day) was 75 IU/L and the BUN ([…], time 7 day) was 18.6 mg/dL. It also gave a CRE ([…], time 7 day) of 0.2 mg/dL, a Ca ([…], time 7 day) of 10.4 mg/dL and a Cl ([…], time 7 day) of 107.6 meq/L. For the same molecule, the DBIL ([…], time 7 day) was 0.004 mg/dL, the GLC ([…], time 7 day) was 179.4 mg/dL and the IP ([…], time 7 day) was 6.6 mg/dL. The K ([…], time 7 day) was 4.2 meq/L, the LDH ([…], time 7 day) was 206.4 IU/L and the Na ([…], time 7 day) was 142.2 meq/L. For the same molecule, the PL ([…], time 7 day) was 154.8 mg/dL, the RALB ([…], time 7 day) was 3.1 g/dL and the TBIL ([…], time 7 day) was 0.006 mg/dL. The TC ([…], time 7 day) was 88.6 mg/dL, the TG ([…], time 7 day) was 89 mg/dL and the TP ([…], time 7 day) was 5.7 g/dL. The gamma-GTP ([…], time 7 day) was 1.4 IU/L, the A/G ([…], time 14 day) was 1.1 and the ALP ([…], time 14 day) was 1067 IU/L. For the same molecule, the ALT ([…], time 14 day) was 40.2 IU/L, the AST ([…], time 14 day) was 70.8 IU/L and the BUN ([…], time 14 day) was 18.2 mg/dL. The CRE ([…], time 14 day) was 0.2 mg/dL, the Ca ([…], time 14 day) was 10.4 mg/dL and the Cl ([…], time 14 day) was 106.6 meq/L. The DBIL ([…], time 14 day) was 0.004 mg/dL, the GLC ([…], time 14 day) was 182.6 mg/dL and the IP ([…], time 14 day) was 6.7 mg/dL. For the same molecule, the K ([…], time 14 day) was 4.3 meq/L, the LDH ([…], time 14 day) was 154.6 IU/L and the Na ([…], time 14 day) was 142.2 meq/L. For the same molecule, the PL ([…], time 14 day) was 153.8 mg/dL, the RALB ([…], time 14 day) was 3 g/dL and the TBIL ([…], time 14 day) was 0.026 mg/dL. It also gave a TC ([…], time 14 day) of 85 mg/dL, a TG ([…], time 14 day) of 118.6 mg/dL and a TP ([…], time 14 day) of 5.7 g/dL. The gamma-GTP ([…], time 14 day) was 1.8 IU/L, the A/G ([…], time 28 day) was 1.1 and the ALP ([…], time 28 day) was 1143.8 IU/L. It also gave an ALT ([…], time 28 day) of 37.2 IU/L, an AST ([…], time 28 day) of 68 IU/L and a BUN ([…], time 28 day) of 17.4 mg/dL. It also gave a CRE ([…], time 28 day) of 0.2 mg/dL, a Ca ([…], time 28 day) of 10.4 mg/dL and a Cl ([…], time 28 day) of 106.2 meq/L. For the same molecule, the DBIL ([…], time 28 day) was 0 mg/dL, the GLC ([…], time 28 day) was 184.2 mg/dL and the IP ([…], time 28 day) was 6.9 mg/dL. It also gave a K ([…], time 28 day) of 4.2 meq/L, an LDH ([…], time 28 day) of 157.6 IU/L and a Na ([…], time 28 day) of 141.8 meq/L. It also gave a PL ([…], time 28 day) of 138.4 mg/dL, an RALB ([…], time 28 day) of 3.1 g/dL and a TBIL ([…], time 28 day) of 0.038 mg/dL. It also gave a TC ([…], time 28 day) of 68.4 mg/dL, a TG ([…], time 28 day) of 122.6 mg/dL and a TP ([…], time 28 day) of 5.9 g/dL. It also gave a gamma-GTP ([…], time 28 day) of 2.2 IU/L.
